Source: patent publication US20080076927A1, “Synthetic Methods and Intermediates for Stereoisomeric Compounds Useful for the Treatment of Gastrointestinal and Central Nervous System Disorders” (ARYx Therapeutics, Inc., priority 2005, published 2008)
Where two headings read alike, the source gives them in different places.

Tests used:
[1] = tested on: isolated, perfused guinea pig hearts
2C9 = 2C9 (Homo sapiens, UniProt P11712)
2D6 = 2D6 (Homo sapiens, UniProt P10635)
CYP3A4 = CYP3A4 (Homo sapiens, UniProt P08684); details: recombinant enzyme
5-HT4 Receptor [2] = target: T1, 5-HT4 Receptor (Cavia porcellus, UniProt O70528); experiment: 5-HT4 Receptor Binding, Guinea Pig Striatum, [3H]GR113808; design: Guinea Pig Striatum; from tissue; host or cells: guinea pig striatum
[3] = type: in vitro ADME, human; details: for dependence of metabolism on NADPH / CYP450: microsomes
Procedure: ATI-7505 (2 μM) was incubated with human microsomal protein (1 mg) in the presence or absence of NADPH regenerating system (cofactor).
Thus the major biotransformation pathway for ATI-7505 occurs independently of CYP450 enzymes.
The metabolism of these compounds was studied in pooled human microsomes in the presence and absence of the Cytochrome P-450 cofactor NADPH and both the disappearance of parent and the appearance of the corresponding acid metabolite, i.e., the corresponding compound-II isomer, monitored with time.
In this experiment, the amount of substrate (compounds III, IV, V, and VI) remaining in the reaction after 5, 60, and 90 minutes were evaluated by a tandem HPLC-MS method. This remaining amount was correlated with the appearance of the metabolite compound II.

[4] = target: T2, human IKr (HERG K+ channels) (Homo sapiens, UniProt Q12809); experiment: whole cell patch-clamp of IKr in HEK-293 cells expressing the HERG K+ channels; type: cell-based
T2 construct: expressed in transfected cells; host or cells: HEK-293
Procedure: The test system was mammalian HEK-293 cells expressing the HERG K+ channels, in which the potassium current was measured by whole cell patch-clamp technique.

fed dogs = experiment: gastric emptying in fed conscious dogs (time of MMC return); details: IV infusion over 20 minutes before a solid meal
Procedure: The data shown are normalized to the averaged vehicle control times of MMC return values.
The objective of the experiments was to measure the time required for migrating motor contractions (MMCs) to return to baseline following ingestion of a solid meal. A drug-induced shortening of MMC return time indicated an early end of the digestive period due to accelerated gastric emptying. […] At the end of the drug infusion, the dogs were fed a meal. Gut contractions were recorded for a minimum of 60 minutes prior to the start of the drug infusion to establish the fasting state and to identify the onset of MMC in the duodenum, and at least 30 minutes after the return of MMC in the duodenum. Quantitative comparisons of the treatments were based on the time of MMC return as an index of gastric emptying following ingestion of a solid meal.

fasted, conscious dogs = details: for antral and small bowel contractility, colonic motor activity / prokinetic effects in the dog gut: IV and PO; for migrating motor complex (MMC) characteristics: antrum, proximal, mid and distal small intestine
human 5-HT4 receptor = target: T3, human 5-HT4 receptor (Homo sapiens, UniProt Q13639); experiment: adenylyl cyclase stimulation in cells engineered to stably express human 5-HT4 receptor; type: cell-based; details: for Efficacy % of 5HT (serotonin): estimated Emax relative to 5-HT
T3 construct: expressed in transfected cells
Description: ARYx performed in vitro assays based on adenylyl cyclase stimulation in cells engineered to stably express human 5-HT4 receptor. […] [table]

[5] = tested on: esterases in human plasma
[6] = Metabolism in Fresh Human Blood; type: in vitro ADME; details: for Half-life: 100 µM
Procedure: Fresh blood was collected into heparinized tubes from 3 human donors and blood was stored on ice until incubation. Separate aliquots of blood from each donor were pipetted into 1.5 mL centrifuge tubes and the tubes were pre-incubated in a shaking water bath at 37° C. for 5 minutes. The reaction was initiated by the addition of 10 μL of the appropriate test compound stock to each tube (final concentration=100 μM). Incubations were quenched after 0, 5, 15, 30 and 60 minutes, by the addition of acetonitrile ([…]), centrifuged at 12,000 rpm for 2 minutes and the supernatant analyzed on an Agilent 1100 HPLC system. Separations were accomplished on a Keystone Intersil ODS2, 250×4.6 mm, […] column. The aqueous mobile phase consisted of 20 mM ammonium acetate buffer (pH 5.7) and the organic phase acetonitrile. A gradient was used: initial condition consisted of 20% acetonitrile for 1 minute. […] The system was then recycled to initial conditions over the course of 1 minute and held there for 4 minutes before the next injection. […] The results were expressed as amount of initial compound remaining and data subjected to kinetic analysis using WinNonLin. The half-lives for the individual compounds are given below in Table 6.

5-HT4 Receptor [7] = target: T1, 5-HT4 Receptor; experiment: 5-HT4 receptor binding of the isomers of compound I, radiolabel displacement method; details: read-out: binding constant Ki
[8] = July 1993 to December 1999; cited from earlier work
[9] = in vivo; cited from earlier work
[10] = tested at 10, 100, 1,000, and 10,000 nM

T2 sequence (Q12809 whole entry): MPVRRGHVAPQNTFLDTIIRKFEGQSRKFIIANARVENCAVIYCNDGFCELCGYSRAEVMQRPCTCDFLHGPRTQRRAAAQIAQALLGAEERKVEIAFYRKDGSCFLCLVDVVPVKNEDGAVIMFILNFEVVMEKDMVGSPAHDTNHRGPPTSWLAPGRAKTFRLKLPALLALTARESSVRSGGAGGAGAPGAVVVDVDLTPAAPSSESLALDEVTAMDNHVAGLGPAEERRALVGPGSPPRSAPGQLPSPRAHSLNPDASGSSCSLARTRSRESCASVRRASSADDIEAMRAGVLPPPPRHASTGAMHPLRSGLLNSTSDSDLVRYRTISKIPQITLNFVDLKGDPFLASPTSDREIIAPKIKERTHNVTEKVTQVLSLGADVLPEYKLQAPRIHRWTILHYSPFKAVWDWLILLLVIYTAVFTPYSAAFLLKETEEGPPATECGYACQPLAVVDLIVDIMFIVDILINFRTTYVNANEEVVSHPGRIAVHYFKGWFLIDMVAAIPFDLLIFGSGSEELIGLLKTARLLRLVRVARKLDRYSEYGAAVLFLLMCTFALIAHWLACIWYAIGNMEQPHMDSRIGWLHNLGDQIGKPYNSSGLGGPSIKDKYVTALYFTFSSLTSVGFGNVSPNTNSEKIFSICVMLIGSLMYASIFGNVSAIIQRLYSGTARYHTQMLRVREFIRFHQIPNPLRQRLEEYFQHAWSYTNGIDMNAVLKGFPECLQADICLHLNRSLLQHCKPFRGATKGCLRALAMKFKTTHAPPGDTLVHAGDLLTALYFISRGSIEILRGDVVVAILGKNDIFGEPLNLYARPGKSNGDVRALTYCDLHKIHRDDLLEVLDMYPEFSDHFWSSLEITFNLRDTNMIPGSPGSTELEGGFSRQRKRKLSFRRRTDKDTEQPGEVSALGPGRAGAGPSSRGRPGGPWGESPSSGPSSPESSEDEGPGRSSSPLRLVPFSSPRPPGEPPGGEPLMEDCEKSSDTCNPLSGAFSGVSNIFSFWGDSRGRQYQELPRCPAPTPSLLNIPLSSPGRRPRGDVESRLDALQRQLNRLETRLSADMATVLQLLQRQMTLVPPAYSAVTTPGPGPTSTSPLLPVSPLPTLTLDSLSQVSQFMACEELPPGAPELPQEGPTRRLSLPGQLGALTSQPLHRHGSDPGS
T1 sequence (O70528 whole entry): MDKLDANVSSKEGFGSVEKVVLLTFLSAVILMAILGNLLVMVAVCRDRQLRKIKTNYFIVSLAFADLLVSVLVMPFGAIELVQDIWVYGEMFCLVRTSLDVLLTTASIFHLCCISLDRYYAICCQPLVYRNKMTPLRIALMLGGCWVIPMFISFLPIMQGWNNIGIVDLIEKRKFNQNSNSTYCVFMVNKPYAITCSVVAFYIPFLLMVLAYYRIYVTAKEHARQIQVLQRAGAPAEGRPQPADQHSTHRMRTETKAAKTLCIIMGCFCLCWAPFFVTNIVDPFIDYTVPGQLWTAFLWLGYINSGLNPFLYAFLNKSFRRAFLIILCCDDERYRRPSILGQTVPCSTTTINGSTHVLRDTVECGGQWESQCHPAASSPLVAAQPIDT
Sequence of 2D6 (P10635 whole entry): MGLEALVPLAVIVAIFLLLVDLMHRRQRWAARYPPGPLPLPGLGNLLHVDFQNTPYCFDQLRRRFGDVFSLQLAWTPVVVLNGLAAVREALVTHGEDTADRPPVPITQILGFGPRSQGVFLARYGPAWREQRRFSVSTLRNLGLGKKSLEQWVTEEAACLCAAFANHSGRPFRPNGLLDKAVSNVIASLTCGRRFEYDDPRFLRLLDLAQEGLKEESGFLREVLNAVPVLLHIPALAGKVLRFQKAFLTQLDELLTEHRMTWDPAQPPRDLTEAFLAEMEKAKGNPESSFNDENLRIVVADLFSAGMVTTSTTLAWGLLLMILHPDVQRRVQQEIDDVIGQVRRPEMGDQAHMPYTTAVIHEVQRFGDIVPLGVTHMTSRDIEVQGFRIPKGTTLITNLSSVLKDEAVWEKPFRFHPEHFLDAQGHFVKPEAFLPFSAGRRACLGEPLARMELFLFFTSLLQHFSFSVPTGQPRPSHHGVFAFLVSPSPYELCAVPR
T3 sequence (Q13639 whole entry): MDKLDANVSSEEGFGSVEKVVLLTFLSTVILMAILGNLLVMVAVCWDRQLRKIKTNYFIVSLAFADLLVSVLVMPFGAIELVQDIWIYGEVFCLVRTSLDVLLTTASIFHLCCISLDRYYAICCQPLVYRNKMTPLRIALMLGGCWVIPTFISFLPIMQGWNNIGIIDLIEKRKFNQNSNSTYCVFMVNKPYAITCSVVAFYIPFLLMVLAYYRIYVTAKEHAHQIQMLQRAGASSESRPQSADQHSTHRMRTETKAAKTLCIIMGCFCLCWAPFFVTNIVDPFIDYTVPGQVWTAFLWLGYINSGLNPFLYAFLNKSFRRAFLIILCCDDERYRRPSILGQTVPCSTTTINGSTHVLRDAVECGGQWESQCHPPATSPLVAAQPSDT
Sequence of 2C9 (P11712 whole entry): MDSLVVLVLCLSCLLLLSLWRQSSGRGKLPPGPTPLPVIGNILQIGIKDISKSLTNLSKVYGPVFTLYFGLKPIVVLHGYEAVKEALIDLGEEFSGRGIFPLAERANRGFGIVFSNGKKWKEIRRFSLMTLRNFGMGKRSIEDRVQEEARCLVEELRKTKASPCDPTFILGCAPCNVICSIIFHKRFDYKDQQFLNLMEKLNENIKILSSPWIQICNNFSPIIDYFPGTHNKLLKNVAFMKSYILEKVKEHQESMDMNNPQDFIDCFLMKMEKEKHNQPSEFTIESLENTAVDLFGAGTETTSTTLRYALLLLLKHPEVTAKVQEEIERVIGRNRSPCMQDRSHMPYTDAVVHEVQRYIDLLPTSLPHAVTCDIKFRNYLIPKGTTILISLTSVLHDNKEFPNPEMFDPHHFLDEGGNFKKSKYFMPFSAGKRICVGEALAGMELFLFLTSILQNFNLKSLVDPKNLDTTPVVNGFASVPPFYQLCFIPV
Sequence of CYP3A4 (P08684 whole entry): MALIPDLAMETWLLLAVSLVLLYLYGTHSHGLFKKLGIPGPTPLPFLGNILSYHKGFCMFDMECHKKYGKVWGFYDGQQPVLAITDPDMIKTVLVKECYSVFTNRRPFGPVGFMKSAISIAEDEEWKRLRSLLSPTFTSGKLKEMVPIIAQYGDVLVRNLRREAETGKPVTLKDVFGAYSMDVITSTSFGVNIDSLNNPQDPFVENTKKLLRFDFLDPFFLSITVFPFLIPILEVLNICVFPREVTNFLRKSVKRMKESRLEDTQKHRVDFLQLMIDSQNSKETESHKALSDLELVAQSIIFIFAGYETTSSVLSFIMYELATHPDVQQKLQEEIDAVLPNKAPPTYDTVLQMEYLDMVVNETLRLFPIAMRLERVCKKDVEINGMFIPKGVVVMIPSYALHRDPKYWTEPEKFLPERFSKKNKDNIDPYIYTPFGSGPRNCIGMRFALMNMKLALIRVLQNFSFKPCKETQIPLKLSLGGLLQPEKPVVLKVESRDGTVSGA

SMILES: COc1cc(N)c(Cl)cc1C(=O)N[C@@H]1CCN(CCCCCC(=O)O)C[C@@H]1OC [ATI-7500, 6-((3S,4R)-4-(4-amino-5-chloro-2-methoxybenzamido)-3-methoxypiperidin-1-yl)hexanoic acid]
- modulation of cardiac electrophysiologic parameters [1]: entirely lacked electrophysiological activity
- inhibitory activity against 2C9 (2C9): Neither ATI-7505 nor its primary metabolite, ATI-7500 displayed significant inhibitory activity
- inhibitory activity against 2D6 (2D6; human): Neither ATI-7505 nor its primary metabolite, ATI-7500 displayed significant inhibitory activity
- inhibitory activity against CYP3A4 (CYP3A4): Neither ATI-7505 nor its primary metabolite, ATI-7500 displayed significant inhibitory activity
- IC50 (5-HT4 Receptor [2]; Guinea Pig Striatum, [3H]GR113808 (0.70 nM), read-out: IC50): > 3000 nM
- Ki (5-HT4 Receptor [2]; Guinea Pig Striatum, [3H]GR113808 (0.70 nM), read-out: Ki): > 500 nM
- biotransformation in pooled human microsomes [3]: does not appear to be subject to further metabolism

SMILES: COc1cc(N)c(Cl)cc1C(=O)N[C@@H]1CCN(CCCCCC(=O)O[C@H]2CN3CCC2CC3)C[C@@H]1OC [ATI-7505, (R)-quinuclidin-3-yl 6-((3S,4R)-4-(4-amino-5-chloro-2-methoxybenzamido)-3-methoxypiperidin-1-yl)hexanoate]
- IC50 [4]: 24500 nM
- % IKr control (10,000 nM) ([4]; 10,000 nM, normalized to % control tail IKr): 78.0%
- time of MMC return as an index of gastric emptying (fed dogs): significantly shortened the time of MMC return
- antral and small bowel contractility, colonic motor activity (fasted, conscious dogs): dose-dependent stimulation of antral and small bowel contractility with relatively little effect on colonic motor activity
- prokinetic effects in the dog gut (fasted, conscious dogs): caused prokinetic effects in the dog gut
- MMC frequency in the proximal small intestine (fasted, conscious dogs; PO, relative to the controls): increased MMC frequency in the proximal small intestine relative to the controls
- migrating motor complex (MMC) characteristics (fasted, conscious dogs): minimal effect
- frequency of giant migrating contractions (GMC) (fasted, conscious dogs; dog, in vivo): small but significant (p<0.05) increase
- potency relative to cisapride on a mg/kg-basis (fasted, conscious dogs; dog, in vivo): approximately twice as potent as cisapride
- retrograde giant migrating contractions (RGC) (fasted, conscious dogs; dog, in vivo): not associated with the development of retrograde giant migrating contractions (RGC)
- tolerability, side effects (fasted, conscious dogs; dog, in vivo): exhibited no side effects such as diarrhea, anorexia, or weight loss
- 5-HT4 receptor agonism (human 5-HT4 receptor): highly potent 5-HT4 receptor agonist
- EC50 (human 5-HT4 receptor; Potency EC50, concentration causing 50% maximal increase in adenylyl cyclase activity, estimated, unit nM printed in b338 only): 4 nM
- EC50 (human 5-HT4 receptor; Potency pEC50, negative logarithm of the EC50): 3.55 nM
- Efficacy % of 5HT (serotonin) (human 5-HT4 receptor): 85%
- EC50 fold lower than that of ATI-7500 (human 5-HT4 receptor; versus ATI-7500): approximately 100 fold
- EC50 fold lower than that of cisapride (human 5-HT4 receptor; versus cisapride): approximately 10 fold
- modulation of cardiac electrophysiologic parameters [1]: very weak modulator of cardiac electrophysiologic parameters
- No Observed Effect Level (NOEL), Combined Parameters ([1]; combined set of 6 cardiac parameters): 1,000 nM
- No Observed Effect Level (NOEL), AH Interval [1, 10]: >10,000 nM
- No Observed Effect Level (NOEL), HV Interval [1, 10]: 1,000 nM
- No Observed Effect Level (NOEL), MAPD90 [1, 10]: 1,000 nM
- No Observed Effect Level (NOEL), QRS Interval [1, 10]: >10,000 nM
- No Observed Effect Level (NOEL), QT Interval [1, 10]: 1,000 nM
- No Observed Effect Level (NOEL), SA Interval [1, 10]: >10,000 nM
- inhibitory activity against 2C9 (2C9): Neither ATI-7505 nor its primary metabolite, ATI-7500 displayed significant inhibitory activity
- rate of metabolism by esterases in human plasma [5]: rapidly metabolized by esterases in human plasma
- inhibitory activity against 2D6 (2D6; human): Neither ATI-7505 nor its primary metabolite, ATI-7500 displayed significant inhibitory activity
- inhibitory activity against CYP3A4 (CYP3A4): Neither ATI-7505 nor its primary metabolite, ATI-7500 displayed significant inhibitory activity
- half-life at 100 µM ([6]; fresh heparinized human blood, Mean ± SD of 3 subjects, 100 μM, 37° C., read-out: Half-life): 8.59 ± 0.077 min
- half-life at 100 µM ([6]; fresh heparinized human blood, Subject 1, 100 μM, 37° C., read-out: Half-life): 8.47 min
- half-life at 100 µM ([6]; fresh heparinized human blood, Subject 2, 100 μM, 37° C., read-out: Half-life): 8.61 min
- half-life at 100 µM ([6]; fresh heparinized human blood, Subject 3, 100 μM, 37° C., read-out: Half-life): 8.58 min
- Ki (5-HT4 Receptor [7]): 1.4 nM
- IC50 (5-HT4 Receptor [2]): 8.3 nM
- Ki (5-HT4 Receptor [2]): 1.4 nM
- nH, Hill coefficient (5-HT4 Receptor [2]; Guinea Pig Striatum): 0.7
- affinity for the 5-HT4 receptor, fold greater than cisapride (5-HT4 Receptor [2]; versus cisapride): 18 fold
- affinity for the 5-HT4 receptor, fold greater than the major metabolite, the carboxylic acid (5-HT4 Receptor [2]; versus major metabolite of ATI-7505): at least 360 fold
- hydrolysis by esterase in human microsomes [3]: rapidly hydrolyzed by esterase
- biotransformation in pooled human microsomes ([3]; human, 2 µM): undergoes biotransformation to a single metabolite, ATI-7500
- dependence of metabolism on NADPH / CYP450 ([3]; human): not dependent on CYP450
- dependence of metabolism on NADPH / CYP450 [3]: not dependent on the presence of NADPH

SMILES: COc1cc(N)c(Cl)cc1C(=O)NC1CCN(CCCOc2ccc(F)cc2)CC1OC (stereo not shown) [Cisapride, reference compound]
- % IKr control (10,000 nM) ([4]; human, 10000 nM): 0%
- antral and small bowel contractility, colonic motor activity (fasted, conscious dogs): dose-dependent stimulation of antral and small bowel contractility with relatively little effect on colonic motor activity
- prokinetic effects in the dog gut (fasted, conscious dogs): caused prokinetic effects in the dog gut
- migrating motor complex (MMC) characteristics (fasted, conscious dogs): minimal effect
- deaths reported [8]: 80
- serious cardiac arrhythmias reportedly associated [8]: at least 341
- Efficacy % of 5HT (serotonin) (human 5-HT4 receptor): 77%
- No Observed Effect Level (NOEL), Combined Parameters ([1]; guinea pig): 10 nM
- inhibitory activity against 2D6 (2D6): significant inhibitory activity
- part of a dose metabolized by oxidative N-dealkylation or aromatic hydroxylation [9]: More than 90%
- nH, Hill coefficient (5-HT4 Receptor [2]; Guinea Pig Striatum): 0.8

SMILES: COc1cc(N)c(Cl)cc1C(=O)N[C@H]1CCN(CCCCCC(=O)O[C@H]2CN3CCC2CC3)C[C@H]1OC [Compound III, (3R,4S,3′R)-6-[4-(4-Amino-5-chloro-2-methoxy-benzoylamino)-3-methoxy-piperidin-1-yl]-hexanoic acid 1-aza-bicyclo[2.2.2]oct-3-yl ester]
- rate of metabolism by esterases in human plasma [5]: rapidly metabolized by esterases in human plasma
- half-life at 100 µM ([6]; blood, Half-life (min)): 12 min
- Ki (5-HT4 Receptor [7]): 28 nM
- hydrolysis by esterase in human microsomes [3]: rapidly hydrolyzed by esterase
- dependence of metabolism on NADPH / CYP450 ([3]; human): not dependent on CYP450

SMILES: COc1cc(N)c(Cl)cc1C(=O)N[C@@H]1CCN(CCCCCC(=O)O[C@@H]2CN3CCC2CC3)C[C@@H]1OC [Compound VI, (3S,4R,3′S)-6-[4-(4-Amino-5-chloro-2-methoxy-benzoylamino)-3-methoxy-piperidin-1-yl]-hexanoic acid 1-aza-bicyclo[2.2.2]oct-3-yl ester]
- rate of metabolism by esterases in human plasma [5]: undergo a much slower metabolism
- Half-life ([6]; blood): >60 min
- half-life at 100 µM ([6]; blood, Half-life (min)): > 60 min
- Ki (5-HT4 Receptor [7]): 3.4 nM
- hydrolysis by esterase in human microsomes [3]: quite stable with time

SMILES: COc1cc(N)c(Cl)cc1C(=O)N[C@H]1CCN(CCCCCC(=O)O[C@@H]2CN3CCC2CC3)C[C@H]1OC [Compound V]
- rate of metabolism by esterases in human plasma [5]: undergo a much slower metabolism
- Half-life ([6]; blood): >60 min
- half-life at 100 µM ([6]; blood, Half-life (min)): > 60 min
- Ki (5-HT4 Receptor [7]): 72 nM
- hydrolysis by esterase in human microsomes [3]: quite stable with time
